Measurements: patent US4308259A, “Penicillin derivatives” (Beecham Group Limited, priority 1979, dated 1981)
Where a name gives a salt, the structure may show the parent alone. Read-outs that look alike come from different tables or passages of the source.

How the values were obtained:
Type in all cases: cell-based
[1] = system: E. coli JT 4; experiment: MIC (antibacterial activity) against E. coli JT 4; conditions: Escherichia coli, JT4
[2] = system: K. aerogenes A; experiment: MIC against K. aerogenes A; conditions: Klebsiella aerogenes
[3] = system: Ps. aeruginosa NCTC 10662; experiment: MIC against Ps. aeruginosa NCTC 10662
[4] = system: P. mirabilis C 977; experiment: MIC against P. mirabilis C 977; conditions: Proteus mirabilis, C977
[5] = system: P. mirabilis 889; experiment: MIC against P. mirabilis 889; conditions: Proteus mirabilis
[6] = system: S. faecalis I; experiment: MIC against S. faecalis I; conditions: Enterococcus faecalis
[7] = system: N. catarrhalis 1502; experiment: MIC against N. catarrhalis 1502
[8] = system: S. aureus Oxford; experiment: MIC against S. aureus Oxford; conditions: Staphylococcus aureus
[9] = system: E. coli NCTC 10418; experiment: MIC against E. coli NCTC 10418; conditions: Escherichia coli, NCTC10418
[10] = system: S. aureus Russell; experiment: MIC against S. aureus Russell; conditions: Staphylococcus aureus
[11] = system: Ps. aeruginosa Dalgleish; experiment: MIC against Ps. aeruginosa Dalgleish; conditions: Pseudomonas aeruginosa; Ps. aeruginosa Dalgleish 10^-2
[12] = system: E. coli JT 425; experiment: MIC against E. coli JT 425; conditions: Escherichia coli, JT425
[13] = system: S. pyogenes CN 10; experiment: MIC against S. pyogenes CN 10; conditions: Streptococcus pyogenes, CN10
[14] = system: E. cloacae N1; experiment: MIC against E. cloacae N1; conditions: Enterobacter cloacae
[15] = system: P. rettgeri; experiment: MIC against P. rettgeri; conditions: Providencia rettgeri
[16] = system: P. morganii; experiment: MIC against P. morganii; conditions: Morganella morganii
[17] = system: B. subtilis; experiment: MIC against B. subtilis; conditions: Bacillus subtilis
[18] = system: S. marcescens US 32; experiment: MIC against S. marcescens US 32; conditions: Serratia marcescens, US32
[19] = Pseudomonas aeruginosa, NCTC10662, Ps. aeruginosa NCTC 10662, read-out: MIC
[20] = Pseudomonas aeruginosa, NCTC10662, Ps. aeruginosa NCTC 10662 10^-2, read-out: MIC

| SMILES | MIC [1] | MIC [2] | MIC [3, 19] | MIC [4] | MIC [5] | MIC [6] | MIC [7] | MIC [8] | MIC [9] | MIC [10] | MIC [11] | MIC [13] | MIC [14] | MIC [16] | MIC [17] | MIC [18] | MIC [3, 20] | MIC ([12]; E. coli JT 425, read-out: MIC) | MIC ([15]; P. rettgeri, read-out: MIC) | further results |
| --- | --- | --- | --- | --- | --- | --- | --- | --- | --- | --- | --- | --- | --- | --- | --- | --- | --- | --- | --- | --- |
| CO[C@@]1(NC(=O)C(c2ccccc2)P(=O)(O)OC)C(=O)N2[C@@H](C(=O)O)C(C)(C)S[C@@H]21 (stereo partly drawn) [Example 6, 6,α-Methoxy-6,β-(2-O-methylphosphono-2-phenylacetamido)penicillanic acid disodium salt] | 125 µg/mL | 12.5 µg/mL | 500 µg/mL | 25 µg/mL | 50 µg/mL | > 500 µg/mL | 0.5 µg/mL | > 500 µg/mL | 50 µg/mL | > 500 µg/mL | 250 µg/mL | > 500 µg/mL | 12.5 µg/mL | 50 µg/mL | > 500 µg/mL | 125 µg/mL | – | – | – | MIC ([3]; Ps. aeruginosa NCTC 10662 10^-2): 500 µg/mL; MIC [12]: 50 µg/mL; MIC [15]: 12.5 µg/mL |
| CO[C@@]1(NC(=O)C(c2ccc(O)cc2)S(=O)(=O)O)C(=O)N2[C@@H](C(=O)O)C(C)(C)S[C@@H]21 (stereo partly drawn) [Example 8, Disodium 6,β-[2-(4-hydroxyphenyl)-2-sulphoacetamido]-6,α-methoxypenicillanate] | 25 µg/mL | 10 µg/mL | 50 µg/mL | 25 µg/mL | 25 µg/mL | > 100 µg/mL | 0.2 µg/mL | > 100 µg/mL | 25 µg/mL | > 100 µg/mL | 25 µg/mL | 25 µg/mL | 10 µg/mL | 25 µg/mL | > 100 µg/mL | 100 µg/mL | 50 µg/mL | 25 µg/mL | 10 µg/mL | – |
| CO[C@@]1(NC(=O)C(c2ccccc2)S(=O)(=O)O)C(=O)N2[C@@H](C(=O)O)C(C)(C)S[C@@H]21 (stereo partly drawn) [Example 1, Disodium 6,α-methoxy-6,β -(2-phenyl-2-sulphoacetamido) penicillanate] | 25 µg/mL | 2.5 µg/mL | > 100 µg/mL | 5 µg/mL | 5 µg/mL | > 100 µg/mL | – | > 100 µg/mL | 25 µg/mL | > 100 µg/mL | 50 µg/mL | 50 µg/mL | 25 µg/mL | 10 µg/mL | > 100 µg/mL | > 100 µg/mL | > 100 µg/mL | 10 µg/mL | 10 µg/mL | – |

Continued by falling MIC [1], values first:

| MIC [1] | MIC [2] | MIC [3, 19] | MIC [4] | MIC [5] | MIC [6] | MIC [7] | MIC [8] | MIC [9] | MIC [10] | MIC [11] | MIC [13] | MIC [14] | MIC [16] | MIC [17] | MIC [18] | MIC [3, 20] | MIC ([12]; E. coli JT 425, read-out: MIC) | MIC ([15]; P. rettgeri, read-out: MIC) | SMILES | further results |
| --- | --- | --- | --- | --- | --- | --- | --- | --- | --- | --- | --- | --- | --- | --- | --- | --- | --- | --- | --- | --- |
| 25 µg/mL | 2.5 µg/mL | > 100 µg/mL | 5 µg/mL | 5 µg/mL | > 100 µg/mL | < 0.02 µg/mL | 25 µg/mL | 10 µg/mL | 50 µg/mL | 100 µg/mL | 5 µg/mL | 2.5 µg/mL | 5 µg/mL | 25 µg/mL | 50 µg/mL | 100 µg/mL | 10 µg/mL | 5 µg/mL | CO[C@@]1(NC(=O)C(c2ccccc2F)S(=O)(=O)O)C(=O)N2[C@@H](C(=O)O)C(C)(C)S[C@@H]21 (stereo partly drawn) [Example 9, Disodium 6,β-[2-(2-fluorophenyl)-2-sulphoacetamido]-6,α-methoxypenicillanate] | – |
| 10 µg/mL | 2.5 µg/mL | 25 µg/mL | 5 µg/mL | 10 µg/mL | > 100 µg/mL | 0.05 µg/mL | > 100 µg/mL | 10 µg/mL | > 100 µg/mL | 25 µg/mL | 25 µg/mL | 5 µg/mL | 5 µg/mL | > 100 µg/mL | 25 µg/mL | 25 µg/mL | 10 µg/mL | 6 µg/mL | CO[C@@]1(NC(=O)C(c2ccc(N)cc2)S(=O)(=O)O)C(=O)N2[C@@H](C(=O)O)C(C)(C)S[C@@H]21 (stereo partly drawn) [Example 4, Disodium 6,β-[2-(4-aminophenyl)-2-sulphoacetamido]-6,α-methoxy-penicillanate] | – |
